{"source": "paper PMC6176987", "about": "“Correction of cognitive deficits in mouse models of Down syndrome by a pharmacological inhibitor of DYRK1A” (Disease Models & Mechanisms, 2018)", "key": {"DYRK1A [1]": {"target": "T1, DYRK1A (Mus musculus, UniProt Q61214)", "T1 construct": "DYRK1A was purified from brain extracts by immunoprecipitation; from tissue; host or cells: mouse brain (wt, Tg(Dyrk1a), Ts65Dn)", "assay": "Brain DYRK1A catalytic activity after treatment, Tg(Dyrk1a) mice", "type": "in vivo", "method": "Protein kinase assays to measure the catalytic activity of DYRK1A in the brains of the animals treated with or without drugs were performed as follows: frozen half brains were homogenized in lysis buffer (1.2 ml/half brain) using Precellys® homogenizer tubes. After centrifugation at 2800 g for 2×15 s, 1 mg brain extract was incubated with 2 µg DYRK1A (H00001859 M01, Interchim) or GSK3-β (MBS8508391, Emelca Bioscience, France) antibodies at 4°C for 1 h under gentle rotation. Then, 20 µl protein G agarose beads (Thermo Fisher Scientific, France), previously washed three times with bead buffer (50 mM Tris pH 7.4, 5 mM NaF, 250 mM NaCl, 5 mM EDTA, 5 mM EGTA, 0.1% Nonidet P-40 and protease inhibitor cocktail from Roche, France), were added to the mix and gently rotated at 4°C for 30 min. After a 1 min spin at 10,000 g and removal of the supernatant, the pelleted immune complexes were washed three times with bead buffer, and a last time with Buffer C (60 mM β-glycerophosphate, 30 mM p-nitrophenolphosphate, 25 mM Mops pH 7.2, 5 mM EGTA, 15 mM MgCl2, 2 mM dithiothreitol, 0.1 mM sodium orthovanadate, 1 mM phenylphosphate, protease inhibitor cocktail). DYRK1A or GSK-3 immobilized on beads were assayed in buffer C as described in the Supplementary Materials and Methods with Woodtide ([…]) (1.5 µg/assay) or GSK3-tide ([…]pSED-EEE, where pS stands for phosphorylated serine) as substrates."}, "Dp1Yey mice": {"tested_on": "Dp1Yey mice", "assay": "Resting state fMRI brain functional connectivity, Dp1Yey mice", "conditions": "L41-treated vs vehicle-treated Dp1Yey mice"}, "DYRK1A [2]": {"tested_on": "DYRK1A", "assay": "Brain DYRK1A protein expression by western blotting after treatment", "type": "in vivo, mouse", "conditions": "19 days daily i.p., transgenic and wt brains", "method": "Brains were obtained from mice and snap-frozen until further use. Then tissues were weighed, homogenized and sonicated in 1 ml lysis buffer (60 mM β-glycerophosphate, 15 mM p-nitrophenylphosphate, 25 mM Mops pH 7.2, 15 mM EGTA, 15 mM MgCl2, 2 mM dithiothreitol, 1 mM sodium orthovanadate, 1 mM sodium fluoride, 1 mM phenylphosphate disodium and protease inhibitor cocktail) per g of material. Homogenates were centrifuged for 15 min at 17,000 g and 4°C. The supernatant was recovered and assayed for protein content (Bio-Rad, France). The proteins were separated by 10% NuPAGE pre-cast Bis-Tris polyacrylamide mini gel electrophoresis (Invitrogen, France) with MOPS-SDS running buffer. Proteins were transferred to 0.45-µm nitrocellulose filters (Schleicher and Schuell, Germany). They were blocked with 5% low-fat milk in Tris-buffered […]/Tween 20, and incubated overnight at 4°C with antibodies. Anti-DYRK1A (H00001859-M01; 1:1000) and anti-GSK-3α/β (KAM-ST002E; 1:1000) were obtained from Interchim (France) and Stressgen (France), respectively. Appropriate secondary antibodies conjugated to horseradish peroxidase (Bio-Rad) were added to visualize the proteins using the enhanced chemiluminescence reaction (ECL, Amersham, France)."}, "Dyrk1a mRNA": {"tested_on": "Dyrk1a mRNA", "assay": "Brain Dyrk1a mRNA expression by qPCR after treatment", "type": "in vivo, mouse", "conditions": "19 days daily i.p., Tg(Dyrk1a), Ts65Dn and wt brains", "excerpt": "To validate the Tg(Dyrk1a) and Ts65Dn models in terms of DYRK1A expression and function, we first verified the expression levels of Dyrk1a mRNA (Fig. 4A) and DYRK1A protein (Fig. 4B) in brains derived from control or L41-treated animals (19 days, daily i.p.). Total mRNAs were extracted from brains and Dyrk1a, Gsk-3b and Rplp0 mRNAs were quantified by quantitative polymerase chain reaction (qPCR) with specific primers. […] We next measured DYRK1A catalytic activities from transgenic and wt brain protein extracts (Fig. 4C). […] As expected, DYRK1A activity was elevated by ∼1.5- to 1.8-fold in transgenic brains compared with wt brains (Fig. 4C).\nFig. 4. Dyrk1a mRNA and DYRK1A protein expression, and catalytic activity in Tg(Dyrk1a) and corresponding wt mice brains, and in Ts65Dn and corresponding wt mice brains. (A) mRNA expression. Total RNA was extracted, purified and reverse transcribed into cDNA. mRNA expression of Dyrk1a, Gsk-3b and reference Rplp0 was quantified by qPCR from the amplification of cDNA with specific primers (one primer annealing to an exon-exon junction). Results are presented as mean±s.e. of four to six measurements and are shown relative to Rplp0 expression, normalized to wt Gsk-3b expression. (B) Protein expression. Total proteins were extracted, resolved by SDS-PAGE and analysed by WB using antibodies directed against DYRK1A, GSK-3α/β and actin (loading control). […]"}}}
{"molecule": "O=C1NC(Nc2ccccc2)=N/C1=C\\c1ccc2c(c1)OCO2", "note": "[L41]", "values": [{"measurement": "Tg(Dyrk1a) brain DYRK1A activity", "setting": "DYRK1A [1]; 24 h after the last treatment of 19 days", "result": "normalized to wt levels"}, {"measurement": "Tg(Dyrk1a) brain DYRK1A activity", "setting": "DYRK1A [1]; 48 h after the last treatment of 19 days", "result": "no more effects"}, {"measurement": "DYRK1A inhibition in Tg(Dyrk1a) mice brains", "setting": "DYRK1A [1]; 5 days of treatment", "result": "not significant"}, {"measurement": "Tg(Dyrk1a) brain DYRK1A activity", "setting": "DYRK1A [1]; 12 days of treatment", "result": "normalized"}, {"measurement": "Reduction of brain DYRK1A activity", "setting": "DYRK1A [1]; 19 days daily i.p., normalized to GSK-3α/β activity", "result": "~30", "unit": "%"}, {"measurement": "Tg(Dyrk1a) brain DYRK1A activity", "setting": "DYRK1A [1]; 19 days of treatment", "result": "normalized"}, {"measurement": "Effect on altered default mode network (DMN) pattern", "setting": "Dp1Yey mice", "result": "rescued"}, {"measurement": "Effect on expression of DYRK1A and GSK-3α/β protein", "setting": "DYRK1A [2]", "result": "no effect"}, {"measurement": "Effect on Dyrk1a mRNA levels", "setting": "Dyrk1a mRNA", "result": "did not modify"}]}
